Here are results for five compounds from ChEMBL document CHEMBL4842327, “Cyclic mimetics of kinase-inhibitory region of Suppressors of Cytokine Signaling 1: Progress toward novel anti-inflammatory therapeutics” (Eur J Med Chem, 2021).

Data set [1] addresses Tyrosine-protein kinase JAK2 (Mus musculus) (UniProt Q62120). Put plainly: Inhibition of JAK2 in mouse VSMC cells assessed as reduction in IFNgamma/IL6-induced Cxcl10 mRNA expression by quantitative real time PCR analysis. In kind it is cell-based. For orientation: Quantitative PCR measures a nucleic acid by following its amplification.
In data set [2] the test system is VSMC. Put plainly: Antioxidant activity in IFNgamma/IL6-stimulated mouse VSMC cells assessed as reduction in Nox1 mRNA expression by quantitative real time PCR analysis. In kind it is functional, cell-based.
The test system of data set [3] is VSMC. Put plainly: Antioxidant activity in mouse VSMC cells assessed as reduction in IFNgamma/IL6-induced intracellular superoxide generation by DHE staining based fluorescence confocal microscopy analysis. The class given is functional, cell-based.
The target of data set [4] is Tyrosine-protein kinase JAK2 (Mus musculus) (UniProt Q62120). Put plainly: Inhibition of JAK2 in mouse VSMC cells assessed as reduction in IFNgamma/IL6- induced STAT1 phosphorylation by Western blot analysis. The class given is cell-based. Background: In western blotting, separated proteins are transferred to a membrane and probed.
Chain of Tyrosine-protein kinase JAK2 (Mus musculus) (Q62120 whole entry): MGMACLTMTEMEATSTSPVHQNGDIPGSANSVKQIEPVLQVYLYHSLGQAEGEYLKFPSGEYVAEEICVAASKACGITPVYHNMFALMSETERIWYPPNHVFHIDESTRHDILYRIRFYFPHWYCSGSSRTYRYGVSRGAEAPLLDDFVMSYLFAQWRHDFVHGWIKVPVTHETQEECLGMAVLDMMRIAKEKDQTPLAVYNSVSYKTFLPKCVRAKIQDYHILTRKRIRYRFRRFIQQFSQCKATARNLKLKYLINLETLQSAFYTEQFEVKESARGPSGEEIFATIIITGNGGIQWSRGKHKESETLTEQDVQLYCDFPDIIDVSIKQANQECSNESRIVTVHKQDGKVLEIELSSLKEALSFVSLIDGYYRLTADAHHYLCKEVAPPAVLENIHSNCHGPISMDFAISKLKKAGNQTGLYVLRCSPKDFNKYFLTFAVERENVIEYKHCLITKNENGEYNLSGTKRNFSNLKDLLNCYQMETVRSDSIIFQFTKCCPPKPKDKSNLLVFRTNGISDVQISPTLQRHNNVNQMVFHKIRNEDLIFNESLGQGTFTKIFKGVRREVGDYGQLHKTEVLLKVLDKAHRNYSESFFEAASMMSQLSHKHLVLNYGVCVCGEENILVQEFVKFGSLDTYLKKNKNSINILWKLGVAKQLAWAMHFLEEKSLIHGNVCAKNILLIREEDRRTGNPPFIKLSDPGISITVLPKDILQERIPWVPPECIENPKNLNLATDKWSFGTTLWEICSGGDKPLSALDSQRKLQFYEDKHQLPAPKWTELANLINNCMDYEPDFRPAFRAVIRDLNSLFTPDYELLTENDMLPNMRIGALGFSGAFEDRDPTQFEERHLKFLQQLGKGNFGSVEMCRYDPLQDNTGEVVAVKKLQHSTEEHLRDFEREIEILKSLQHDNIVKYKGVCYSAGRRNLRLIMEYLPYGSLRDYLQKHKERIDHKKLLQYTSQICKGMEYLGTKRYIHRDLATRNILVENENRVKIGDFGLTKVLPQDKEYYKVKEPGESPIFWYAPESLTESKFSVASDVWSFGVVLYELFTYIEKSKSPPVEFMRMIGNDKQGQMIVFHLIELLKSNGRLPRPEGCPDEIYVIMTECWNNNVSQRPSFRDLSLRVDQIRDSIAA
Data set [5] deals with VSMC. Put plainly: Inhibition of IFN-gamma/IL6-induced cell migration in mouse VSMC cells incubated for 45 hrs by scratch wound healing assay. The class given is functional, cell-based.
For data set [6], the target named is Tyrosine-protein kinase JAK2 (Mus musculus) (UniProt Q62120). Put plainly: Inhibition of JAK2 in mouse VSMC cells assessed as reduction in IFN-gamma/IL6 induced STAT1 nuclear translocation at 5 uM treated for 90 mins prior to cytokine stimulation and measured after 1 hr by DAPI staining based immunofluorescence confocal microscopy. The settings on record: time 150.0 min. The class given is cell-based.

Data set [7] shares this target. Put plainly: Inhibition of JAK2 in mouse VSMC cells assessed as reduction in IFNgamma/IL6-induced Ccl5 mRNA expression by quantitative real time PCR analysis. In kind it is cell-based.
For data set [8], the system named is VSMC. Put plainly: Antioxidant activity in IFNgamma/IL6-stimulated mouse VSMC cells assessed as upregulation of catalase mRNA expression by quantitative real time PCR analysis. In kind it is functional, cell-based.
Data set [9] deals with Tyrosine-protein kinase JAK2 (Homo sapiens, UniProt O60674). Put plainly: Binding affinity to N-terminal His-tagged human JAK2 catalytic domain (826 to 1132 residues) expressed in baculovirus-infected Sf21 cells by Microscale thermophoresis analysis.
Chain of Tyrosine-protein kinase JAK2 (O60674 whole entry, the tested form may be a part): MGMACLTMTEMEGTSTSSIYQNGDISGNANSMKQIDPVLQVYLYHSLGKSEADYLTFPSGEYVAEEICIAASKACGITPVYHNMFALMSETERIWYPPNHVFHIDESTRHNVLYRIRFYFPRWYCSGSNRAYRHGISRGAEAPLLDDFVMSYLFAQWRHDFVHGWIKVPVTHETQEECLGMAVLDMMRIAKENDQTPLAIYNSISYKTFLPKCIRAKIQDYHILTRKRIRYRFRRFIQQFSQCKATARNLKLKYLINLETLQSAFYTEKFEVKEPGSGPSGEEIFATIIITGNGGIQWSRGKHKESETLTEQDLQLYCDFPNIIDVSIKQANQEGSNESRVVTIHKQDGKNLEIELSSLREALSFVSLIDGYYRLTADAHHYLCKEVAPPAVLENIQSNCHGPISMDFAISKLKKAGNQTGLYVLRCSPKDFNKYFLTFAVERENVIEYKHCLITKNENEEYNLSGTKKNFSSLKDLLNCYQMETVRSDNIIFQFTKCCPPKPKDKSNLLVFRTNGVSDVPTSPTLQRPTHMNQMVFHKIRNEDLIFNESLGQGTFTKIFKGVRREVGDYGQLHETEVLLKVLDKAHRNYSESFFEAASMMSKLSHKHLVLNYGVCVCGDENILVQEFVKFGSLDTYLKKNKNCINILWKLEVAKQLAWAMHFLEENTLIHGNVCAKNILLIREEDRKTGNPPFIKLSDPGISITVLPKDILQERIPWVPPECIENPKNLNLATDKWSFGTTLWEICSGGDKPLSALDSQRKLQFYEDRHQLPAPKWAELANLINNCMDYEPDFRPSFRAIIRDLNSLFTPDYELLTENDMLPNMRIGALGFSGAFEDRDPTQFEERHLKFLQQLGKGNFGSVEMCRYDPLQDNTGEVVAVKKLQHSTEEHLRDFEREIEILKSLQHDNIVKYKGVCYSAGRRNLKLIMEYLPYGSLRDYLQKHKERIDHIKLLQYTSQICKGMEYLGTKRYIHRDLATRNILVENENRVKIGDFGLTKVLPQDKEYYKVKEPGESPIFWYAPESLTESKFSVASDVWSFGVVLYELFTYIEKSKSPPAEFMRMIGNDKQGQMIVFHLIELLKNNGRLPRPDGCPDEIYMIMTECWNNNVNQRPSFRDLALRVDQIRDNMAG
Data set [10] concerns the target Tyrosine-protein kinase JAK2 (Mus musculus) (UniProt Q62120). Put plainly: Inhibition of JAK2 in mouse VSMC cells assessed as reduction in IFNgamma/IL6-induced JAK2 phosphorylation by Western blot analysis. The class given is cell-based.
For data set [11], the system named is VSMC. Put plainly: Antioxidant activity in IFNgamma/IL6-stimulated mouse VSMC cells assessed as upregulation of Sod1 mRNA expression by quantitative real time PCR analysis. In kind it is functional, cell-based.
For data set [12], the target named is Tyrosine-protein kinase JAK2 (Mus musculus) (UniProt Q62120). Put plainly: Inhibition of JAK2 in mouse VSMC cells assessed as reduction in IFNgamma/IL6-induced Ccl2 mRNA expression by quantitative real time PCR analysis. The class given is cell-based.
Data set [13] shares this target. Put plainly: Inhibition of JAK2 in mouse RAW264.7 cells assessed as reduction in IFNgamma/IL6-induced Ccl5 mRNA expression by quantitative real time PCR analysis. The class given is cell-based.
For data set [14] the target is unchanged. Put plainly: Inhibition of JAK2 in mouse RAW264.7 cells assessed as reduction in IFNgamma/IL6-induced Cxcl10 mRNA expression by quantitative real time PCR analysis. In kind it is cell-based.
For data set [15] the target is unchanged. Put plainly: Inhibition of JAK2 in mouse VSMC cells assessed as reduction in IFNgamma/IL6 induced STAT1 phosphorylation at 5 uM treated for 90 mins prior to cytokine stimulation and measured after 1 hr by DAPI staining based immunofluorescence confocal microscopy. The settings on record: time 150.0 min. The class given is cell-based.
Data set [16] has the same target. Put plainly: Inhibition of JAK2 in mouse RAW264.7 cells assessed as reduction in IFNgamma/IL6-induced Ccl2 mRNA expression by quantitative real time PCR analysis. The class given is cell-based.
For data set [17], the system named is VSMC. Put plainly: Antioxidant activity in IFNgamma/IL6-stimulated mouse VSMC cells assessed as reduction in Nox4 mRNA expression by quantitative real time PCR analysis. In kind it is functional, cell-based.
In another data set the test system is RAW264.7. Put plainly: Antioxidant activity in mouse RAW264.7 cells assessed as reduction in IFNgamma/IL6-induced intracellular superoxide generation by DHE staining based fluorescence confocal microscopy analysis. In kind it is functional, cell-based.
A short description of data set [18]: Stability of the compound in 25% fetal calf serum assessed as enzyme-mediated compound degradation at 80 uM measured after 24 hrs by RP-HPLC analysis. In kind it is ADME, cell-free, Bos taurus. The settings on record: cattle, read-out: Drug degradation.
The nature of data set [19]: Cytotoxicity against mouse VSMC cells assessed as reduction in cell proliferation at 25 uM incubated for 24 hrs in DMEM medium containing 10% FBS by MTT assay. In kind it is cell-based. (Tetrazolium dyes change colour on reduction, which living cells bring about.)
Data set [20] in a line: Cytotoxicity against mouse VSMC cells assessed as reduction in cell viability at 25 uM incubated for 6 to 24 hrs in DMEM medium containing 0.5% FBS by MTT assay. In kind it is cell-based. The settings on record: time 6-24 hrs.
Data set [21] can be described thus: Stability of the compound in 25% fetal calf serum assessed as residual parent compound level at 80 uM measured after 42 hrs by RP-HPLC analysis. The settings on record: cattle, read-out: Stabilty. The class given is ADME, cell-free, Bos taurus.

Activity calls are given as the source filed them. No cut-off for these calls is given here. Peptide text beside a SMILES is read from it. * marks the point of attachment. Acm = CC(=O)NC*

In the case of `CC(=O)NCSC[C@@H]1NC(=O)[C@H]([C@@H](C)O)NC(=O)[C@H](NC(C)=O)CC(=O)NCCCC[C@@H](C(=O)NC(Cc2cnc[nH]2)C(N)=O)NC(=O)[C@@H](CCCNC(=N)N)NC(=O)[C@H](Cc2cccc3ccccc23)NC(=O)[C@H]([C@@H](C)O)NC(=O)[C@H](CCC(N)=O)NC(=O)[C@@H](CCCNC(=N)N)NC1=O` (stereo not given in full), the inhibition entry (in data set [1]; in data set [4]; in the data set on VSMC [5]; in data set [7]; in data set [10]; in data set [12]) was “Active” throughout. Also, the inhibition result in data set [13], in data set [14] and in data set [16] was “Active” each time. The result in the data set with VSMC [2], in the data set with VSMC [3], in the data set on VSMC [8], in the data set on VSMC [11], in the data set on VSMC [17] and in the data set with RAW264.7 was Active. Further, the inhibition in data set [6] and in data set [15] was 65% throughout. This compound also yielded an equilibrium dissociation constant (Kd) in data set [9] of 35 µM.
In the case of `CC(=O)NCSC[C@H](NC(=O)[C@@H](NC(=O)[C@H](CC(=O)O)NC(C)=O)[C@@H](C)O)C(=O)N[C@@H](CCCNC(=N)N)C(=O)N[C@@H](CCC(N)=O)C(=O)N[C@H](C(=O)N[C@@H](Cc1ccccc1)C(=O)N[C@@H](CCCNC(=N)N)C(=O)N[C@@H](CO)C(=O)N[C@@H](Cc1cnc[nH]1)C(=O)O)[C@@H](C)O` (Ac-DTC(Acm)RQTFRSH-OH), the inhibition entry in data set [1], in data set [4], in data set [7], in data set [10], in data set [12] and in data set [13] was “Active” in each case. Besides, the inhibition entry in data set [14] and in [16] was “Active” throughout. The result with VSMC [2], with VSMC [3], with VSMC [8], with VSMC [11], in the data set with VSMC [17] and in the data set with RAW264.7 was Active. Further, the metabolised at 24 h, 80 µM in data set [18] came to 50%. Further, the Activity entry in data set [19] and in [20] was “Non-Toxic” in each case.
Regarding `CC(=O)NCSC[C@@H]1NC(=O)[C@H]([C@@H](C)O)NC(=O)[C@@H](NC(C)=O)CC(=O)NCCCC[C@@H](C(=O)N[C@@H](Cc2cnc[nH]2)C(N)=O)NC(=O)[C@H](CCCNC(=N)N)NC(=O)[C@H](Cc2ccccc2)NC(=O)[C@H]([C@@H](C)O)NC(=O)[C@H](CCC(N)=O)NC(=O)[C@H](CCCNC(=N)N)NC1=O`, in data set [18], the metabolised at 24 h, 80 µM came out at 40%. Besides, the Activity result in data set [19] and in data set [20] was “Non-Toxic” each time.
`CC(=O)NCSC[C@@H]1NC(=O)[C@H]([C@@H](C)O)NC(=O)[C@@H](NC(C)=O)CC(=O)NCCCC[C@@H](C(=O)NC(Cc2cnc[nH]2)C(N)=O)NC(=O)[C@@H](CCCNC(=N)N)NC(=O)[C@H](Cc2ccccc2)NC(=O)[C@H]([C@@H](C)O)NC(=O)[C@H](CCC(N)=O)NC(=O)[C@@H](CCCNC(=N)N)NC1=O` (stereo not given in full): the inhibition result (in [1]; in data set [4]; in the data set on VSMC [5]; in data set [7]; in [10]; in data set [12]) was “Active” each time. Besides, the inhibition entry in [13], in [14] and in [16] was “Active” throughout. The result in the data set on VSMC [2], in the data set with VSMC [3], in the data set on VSMC [8], in the data set with VSMC [11], in the data set with VSMC [17] and with RAW264.7 was Active. Further, the inhibition in [6] and in [15] was 65% each time. This compound also came in with a Kd in [9] of 44 µM.
Regarding `CC(=O)NCSC[C@@H]1NC(=O)[C@H]([C@@H](C)O)NC(=O)[C@@H](NC(C)=O)CC(=O)NCCCC[C@@H](C(=O)N[C@@H](Cc2cnc[nH]2)C(N)=O)NC(=O)[C@H](CCCNC(=N)N)NC(=O)[C@H](Cc2cccc3ccccc23)NC(=O)[C@H]([C@@H](C)O)NC(=O)[C@H](CCC(N)=O)NC(=O)[C@H](CCCNC(=N)N)NC1=O`, in data set [21], the remaining at 42 h, 80 µM amounted to 40%. Moreover, the metabolised at 24 h, 80 µM in data set [18] was 20%. The Activity result in data set [19] and in data set [20] was “Non-Toxic” throughout.

The inhibition is the percentage by which the read-out fell short of the control. Usually Kd stands for a measure of binding affinity in units of concentration. Low readings indicate a tighter complex, high ones a looser complex.
